Results as given in the supplement of paper PMC10307832.

Assays:
Test in all cases: relative viability (nuclei count vs DMSO), 5 days (fraction); higher = more cells survive
[1] = compound: C1=CC=C(C(=C1)C2=CC=C(C=C2)C3=CSC4=C3C(=C(C(=O)N4)C#N)O)O + COc1cccc2cc(-c3nc([C@H]4CC[C@H](C(=O)O)CC4)n4ncnc(N)c34)[nH]c12 [OSI-027] (partner 0.5 µM)
Outline: (§1)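 Lung cancer cell lines in 1536-well plates were dosed by pin tool the day after seeding, either with one drug alone or with a fixed anchor-drug dose plus five library-drug doses (not always all listed) in √10 steps. After 5 days, cells were fixed and their nuclei stained in one step (final 0.05% Triton X-100, 1% formaldehyde, 1 ug/ml Hoechst), then counted on 4× images. Relative viability is the nuclei count in treated wells divided by that in vehicle wells. Values are medians of duplicate plates.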

[2] = compound: C1=CC=C(C(=C1)C2=CC=C(C=C2)C3=CSC4=C3C(=C(C(=O)N4)C#N)O)O + Nc1ncn([C@H]2C[C@H](O)[C@@H](CO)O2)c(=O)n1 [Decitabine] (partner 2 µM)
Outline: as §1

TGX 221 + Decitabine = compound: CC1=CN2C(=O)C=C(N=C2C(=C1)C(C)NC3=CC=CC=C3)N4CCOCC4 [TGX 221] + Nc1ncn([C@H]2C[C@H](O)[C@@H](CO)O2)c(=O)n1 [Decitabine] (partner 2 µM)
Outline: as §1

Ricolinostat + Foretinib = compound: O=C(CCCCCCNC(=O)c1cnc(N(c2ccccc2)c2ccccc2)nc1)NO [Ricolinostat] + COc1cc2c(Oc3ccc(NC(=O)C4(C(=O)Nc5ccc(F)cc5)CC4)cc3F)ccnc2cc1OCCCN1CCOCC1 [Foretinib] (partner 0.25 µM)
Outline: as §1

Row | Cell Line | relative viability ([1]; first compound 0.08 µM) | relative viability ([1]; first compound 0.253 µM) | relative viability ([1]; first compound 0.8 µM) | relative viability ([1]; first compound 2.53 µM) | relative viability ([1]; first compound 8 µM) | relative viability ([2]; first compound 0.08 µM) | relative viability ([2]; first compound 0.253 µM) | relative viability ([2]; first compound 0.8 µM) | relative viability ([2]; first compound 2.53 µM) | relative viability ([2]; first compound 8 µM) | relative viability (TGX 221 + Decitabine; first compound 0.08 µM) | relative viability (TGX 221 + Decitabine; first compound 0.253 µM) | relative viability (TGX 221 + Decitabine; first compound 0.8 µM) | relative viability (TGX 221 + Decitabine; first compound 2.53 µM) | relative viability (TGX 221 + Decitabine; first compound 8 µM) | relative viability (Ricolinostat + Foretinib; first compound 0.08 µM) | relative viability (Ricolinostat + Foretinib; first compound 0.253 µM) | relative viability (Ricolinostat + Foretinib; first compound 0.8 µM) | relative viability (Ricolinostat + Foretinib; first compound 2.53 µM)
1 | LC-2-ad | 0.778 | 0.951 | 0.822 | 0.743 | 0.759 | 0.743 | 0.865 | 0.832 | 0.777 | 0.791 | 0.765 | 0.793 | 0.822 | 0.826 | 0.742 | 0.747 | 0.874 | 0.886 | 0.761
2 | NCI-H1734 | 0.642 | 0.608 | 0.618 | 0.595 | 0.432 | 0.469 | 0.493 | 0.501 | 0.545 | 0.432 | 0.508 | 0.527 | 0.492 | 0.518 | 0.431 | 0.728 | 0.85 | 0.915 | 0.926
3 | NCI-H1975 | 0.535 | 0.823 | 0.689 | 0.709 | 0.676 | 0.384 | 0.4 | 0.41 | 0.403 | 0.426 | 0.542 | 0.386 | 0.385 | 0.362 | 0.39 | 1.04 | 0.975 | 0.822 | 0.917
4 | NCI-H1793 | 0.281 | 0.378 | 0.267 | 0.263 | 0.252 | 0.483 | 0.5 | 0.483 | 0.499 | 0.49 | 0.442 | 0.369 | 0.479 | 0.381 | 0.37 | – | 0.737 | 0.741 | 0.876
5 | NCI-H1650 | 0.477 | 0.784 | 0.738 | 0.508 | 0.43 | 0.456 | 0.535 | 0.496 | 0.384 | 0.367 | 0.433 | 0.376 | 0.386 | 0.486 | 0.43 | 1.17 | 1.05 | 0.886 | 0.635
6 | NCI-H1651 | 0.66 | 0.76 | 0.715 | 0.576 | 0.448 | 0.538 | 0.639 | 0.548 | 0.593 | 0.464 | 0.524 | 0.675 | 0.492 | 0.594 | 0.601 | 0.852 | 0.812 | 0.746 | 0.776
7 | NCI-H1299 | – | – | – | – | – | – | – | – | – | – | – | – | – | – | – | 1.05 | 1.07 | 1.07 | 1.06
8 | NCI-H1703 | – | – | – | – | – | – | – | – | – | – | – | – | – | – | – | – | 0.398 | 0.318 | 0.513
9 | NCI-H522 | 0.606 | 0.73 | 0.86 | 0.771 | 0.657 | 0.739 | 0.772 | 0.674 | 0.628 | 0.671 | 0.717 | 0.624 | 0.696 | 0.587 | 0.64 | – | – | – | –
10 | NCI-H1623 | 0.469 | 0.453 | 0.382 | 0.427 | 0.419 | – | – | – | – | – | – | – | – | – | – | 0.795 | 0.9 | 0.825 | 0.739
11 | Calu-6 | – | – | – | – | – | – | – | – | – | – | – | – | – | – | – | 0.923 | 0.93 | 0.848 | 0.83
12 | EBC-1 | – | – | – | – | – | – | – | – | – | – | – | – | – | – | – | 0.0899 | 0.101 | 0.0995 | 0.0994
